Reference: publication PMC10300260 (The Journal of Biological Chemistry, 2023)

What was measured:
[1] = target: T1, TcK2 (T. cruzi eIF2α kinase 2, PERK homologue); experiment: LANCE TR-FRET kinase assay with p70S6K peptide; DSF ΔTm […] °C; knockout parasites less sensitive; type: biochemical, Trypanosoma cruzi
T1 construct: gene TcYC6_0089220; kinase domain KD5 (S659-I976)

[2] = target: T1, TcK2 (T. cruzi eIF2α kinase 2, PERK homologue); experiment: LANCE TR-FRET kinase assay with p70S6K peptide; DSF ΔTm […] °C; type: biochemical, Trypanosoma cruzi

Cc1nc(Nc2ncc(C(=O)Nc3c(C)cccc3Cl)s2)cc(N2CCN(CCO)CC2)n1 [Dasatinib]
IC50 [1]: 190 ± 20 nM

Cn1cc(-c2[nH]c3cc(NC(=O)[C@H](N)C4CCCCC4)cc4c3c2C=NNC4=O)cn1 [PF-477736]
IC50 [2]: 670 ± 20 nM
